# Source: patent US20230349922A1, “H2 Blockers Targeting Liver Macrophages for the Prevention and Treatment of Liver Disease and Cancer” (Université de Strasbourg, priority 2020, published 2023)
# Tested on: patient-derived Kupffer cells
# Test: Cytokine expression by qRT-PCR in M1 differentiated patient-derived Kupffer cells
# Format: cell-based, human
# Conditions: Kupffer cells isolated from patient tissues, LPS + IFNγ, nizatidine 30 μM 48 hours
# Experimental: Real-Time qRT-PCR. cDNAs were synthetized by reverse transcription using SuperScript III First-Strand Synthesis SuperMix (Life Technologies). Expression of […] IL6, TNFα and IL1β was analyzed by quantitative real-time PCR using TaqMan Gene Expression Assays (Thermo Fisher Scientific) on the CFX96 Touch Real-Time PCR Detection System PCR system (Bio-Rad). Expression of human CCL2 and TGF was analyzed using iTaq™ Universal SYBR® Green Supermix (Bio-Rad). The 2^−ΔCT method was used for relative quantification (Schmittgen and Livak, Nature Protoc., 2008, 3: 1101-1108) of mRNA with normalization to 18S. The 2^−ΔCT method was used for relative quantification (Schmittgen and Livak, Nature Protoc., 2008, 3: 1101-1108) of mRNA with normalization to GAPDH mRNA. Isolation and Treatment of Patient-Derived Kupffer Cells. Kupffer cells were isolated as previously described (Kegel et al., J. Vis. Exp., 2016, 109: e53069) from liver tissue of patients without history of chronic liver disease. Briefly, the non-parenchymal cell populations (NPCs) were purified by serial centrifugation followed by separation of Kupffer cells, exploiting fast attachment of primary macrophages to plastic within 20 minutes. Cells were cultured in RPMI 1640 Medium with GlutaMAX™-I supplement and HEPES and supplemented with 10% FBS and gentamycin (0.05 mg/mL). […]
smiles,measurement,value
"CNC(=C[N+](=O)[O-])NCCSCc1csc(CN(C)C)n1 [Nizatidine, N-[2-[[[2-[(dimethylamino)methyl]-4-thizaolyl]methyl]thio]ethyl]-N′-methyl-2-nitro-1,1-ethene-diamine]",pro-inflammatory cytokine expression,direct effect
